Data on two compounds can be found in patent publication US20040153145A1, “Fixation method for bioprostheses” (Clemson University, priority 2002, published 2004).

SMILES strings stand for the structures.

In one data set the test system is pure elastin. Description: Degradation of orcein-labeled pure elastin by elastase. Format: biochemical. The conditions noted are these: versus buffer control elastin, completely degraded. Here is the method: Pure elastin labeled with orcein was used as a substrate for the enzyme elastase. The labeled elastin substrate was used per se, as well as labeled elastin fixed separately with glutaraldehyde (GA) and with tannic acid (TA).
Purified insoluble elastin labeled with orcein was treated for 24 hours at room temperature with one of:
0.6% GA in 50 mM Hepes buffered saline at pH 7.4 (GA-fixed elastin);
0.3% TA in 50 mM Hepes buffered saline at pH 7.4 (TA-fixed elastin); or
50 mM Hepes buffered saline at pH 7.4 (Buffer control).
Elastin samples were centrifuged at 3000 rpm for 10 minutes at room temperature, rinsed with double distilled (dd)H2O and dialyzed in ddH2O. Treated elastin was suspended in elastase buffer (50 mM Tris, 1 mM CaCl2, 0.02% NaN3, pH 7.8) at a concentration of 20 mg/ml. A blank of labeled elastin incubated in the absence of elastase was also prepared for comparison.
Pure pancreatic elastase was prepared at a concentration of 1 Unit/ml in elastase buffer (described above), mixed with treated elastin samples in a 1 to 1 ratio and incubated at 37° C. for 3 days. Samples were centrifuged and elastin degradation was assessed by measuring the presence of soluble orcein-labeled elastin peptides in supernatants, by measuring optical density at 570 nm.

Data set [1] in a line: Mass loss of fixed aortic wall after elastase digestion. On the set-up: species or system Porcine. To be noted: for % Mass Loss: porcine aortic wall fixed 7 days, 8.5 Units pancreatic elastase, 2 days, 37° C.; for increase in resistance to elastase of aorta: versus fresh aortic wall (60% mass loss in 2 days). As to the method: Porcine aorta fragments were collected from a local slaughterhouse and placed in ice-cold saline. The aorta fragments were fixed separately with GA, TA, and a combination of GA and TA as described below. Following fixation, the samples were treated with high concentrations of elastase to test resistance to enzymatic degradation.
(§1) Porcine aortic conduits were fixed for 7 days at room temperature in either:
0.6% GA in 50 mM Hepes buffered saline at pH 7.4 (GA);
0.3% TA in 50 mM Hepes buffered saline at pH 7.4 (TA); or
A mixture of 0.6% GA and 0.3% TA in 50 mM Hepes buffered saline at pH 7.4 (GA & TA).
After fixation, tissues were washed in normal saline followed by ddH2O and fragments of 4×4 mm were dissected and lyophilized. Tissue fragments from each group were weighed and incubated for 2 days (about 48 hours) at 37° C. with 8.5 Units of pancreatic elastase in elastase buffer (50 mM Tris, 1 mM CaCl2, 0.02% NaN3, pH 7.8). As positive controls, fresh, untreated tissues exposed to elastase solution were used. Tissue fragments were thoroughly rinsed in ddH2O, lyophilized and weighed. Mass loss due to enzyme digestion was calculated from the difference between tissue weight before and after incubation in elastase. Lower values of Mass Loss, set forth in Table 2 and FIG. 3, are indicative of better tissue preservation and improved putative protection of elastin from enzymatic degradation.

Data set [2] can be described thus: Thermal denaturation temperature (Td) of fixed pericardium by DSC. The conditions noted are these: for Td after 24 hours / Td after 44 hours: bovine pericardium, +/− SEM, n = 6; for Td after 24 hours: fixation 24 hours; for Td after 44 hours: fixation 44 hours. Format: physicochemical, bovine. Here is the method: Collagen rich tissue was used as a model to test the possible interference of TA with GA-mediated fixation. Samples of bovine pericardium (tissue including about 85% collagen and 5-10% elastin) was fixed at room temperature in one of either: 1% TA in phosphate buffered saline at pH 7.4 for 24 and 44 hours (TA); 0.5% GA in phosphate buffered saline at pH 7.4 for 24 and 44 hours (GA); 0.5% GA in phosphate buffered saline at pH 7.4 for 60 minutes followed by 1% TA in phosphate buffered saline at pH 7.4 for 24 and 44 hours (GA/TA); or 1% TA in phosphate buffered saline at pH 7.4 for 60 minutes followed by 0.5% GA in phosphate buffered saline at pH 7.4 for 24 and 44 hours (TA/GA). After fixation, tissues were washed in normal saline and the extent of cross-linking was evaluated by analysis of the thermal denaturation temperature (Td). Td reflects that the temperature at which native collagen molecules unravel (around 65° C.) is increased in chemically cross-linked tissues. […]. In the case of connective tissues, Td represents the temperature at which native collagen molecules unravel. This process leads to protein denaturation and is recorded as a peak maximum (FIG. 1). […] Tissues (native, GA fixed, TA fixed, and GA/TA combination fixed, as described above) were rinsed in saline and 2 mm^2 samples were cut and hermetically sealed in Differential Scanning Calorimetry (DSC) aluminum pans. Samples were heated at a rate of 10° C./min, from 25° C. to 110° C. and the temperature of thermal denaturation (Td) for each sample was recorded on a Perkin Elmer DSC 7 machine.

Data set [3] in a line: Calcification of fixed aorta after subdermal implantation in juvenile rats. Type of data set: in vivo, Sprague-Dawley rats. The conditions noted are these: porcine aorta, subdermal implant in juvenile rats, +/− SEM, n = 10. Here is the method:
Porcine aorta fragments were collected from a local slaughterhouse and placed in ice-cold saline. The aorta fragments were fixed with GA and separately with a combination of GA and TA as described below. Following fixation, samples were implanted subdermally in juvenile rats to test for calcification potential.
as §1
0.6% GA in 50 mM Hepes buffered saline at pH 7.4 (GA); or
a mixture of 0.6% GA and 0.3% TA in 50 mM Hepes buffered saline at pH 7.4 (GA & TA).
After fixation, tissues were washed in normal saline and fragments of 4×4 mm were tested for calcification by subdermal implantation in juvenile rats (the process used is described in detail by Bailey M, Xiao H, Ogle M, Vyavahare N., ‘Aluminum chloride pretreatment of elastin inhibits elastolysis by matrix metalloproteinases and leads to inhibition of elastin-oriented calcification,’ The American Journal of Pathology, 2001;159(6):1981-6, which is herein incorporated by reference). […]
At 7 and 21 days after implantation, rats were humanely euthanized, tissue samples explanted from their subdermal pouches, dried and analyzed for calcium content using atomic absorbtion spectrophotometry (as outlined in publication above). […]

Take `O=CCCCC=O` [GA, glutaraldehyde]: the “reduction of elastin degradation by elastase” value in the data set with pure elastin is 6.7%. Also, in data set [1], the “% Mass Loss” value was 39.33% and the “increase in resistance to elastase of aorta” value was “about 20%”. Moreover, in data set [2], the “Td after 24 hours” value is 84.5 +/− 0.7 °C and the “Td after 44 hours” value was 85.1 +/− 1.1 °C. The Td in data set [2] (pericardium, DSC 10° C./min, FIG. 1, fresh around 65° C.) turned out to be 87 °C. Moreover, the “Calcium content after 7 days” value in data set [3] (7 days) was 15.31 +/− 1.54 μg Ca/mg dry. The “Calcium content after 21 days” value in data set [3] (21 days) is 42.18 +/− 2.21 μg Ca/mg dry.

`O=C(OC[C@H]1O[C@@H](OC(=O)c2cc(O)c(O)c(OC(=O)c3cc(O)c(O)c(O)c3)c2)[C@H](OC(=O)c2cc(O)c(O)c(OC(=O)c3cc(O)c(O)c(O)c3)c2)[C@@H](OC(=O)c2cc(O)c(O)c(OC(=O)c3cc(O)c(O)c(O)c3)c2)[C@@H]1OC(=O)c1cc(O)c(O)c(OC(=O)c2cc(O)c(O)c(O)c2)c1)c1cc(O)c(O)c(OC(=O)c2cc(O)c(O)c(O)c2)c1` [TA, tannic acid]: in data set [1], the “% Mass Loss” value came to 41.56% and the “increase in resistance to elastase of aorta” value is on record as “about 20%”. For the same compound, in data set [2], the “Td after 24 hours” value was 68.4 +/− 1.4 °C and the “Td after 44 hours” value is 72.6 +/− 0.9 °C.
